Source: ChEMBL document CHEMBL3763016, “Design, synthesis and biological evaluation of 3'-benzylated analogs of 3'-epi-neoponkoranol as potent α-glucosidase inhibitors” (Eur J Med Chem, 2016)

Experiments:
[1] = Cytotoxicity against human HELF cells by MTT assay; format: cell-based
[2] = Inhibition of rat intestinal maltase using maltose as substrate incubated for 30 mins by glucose-oxidase method
[3] = target: T1, Sucrase-isomaltase, intestinal (Rattus norvegicus, UniProt P23739); assay: Inhibition of rat intestinal sucrase using sucrose as substrate incubated for 30 mins by glucose-oxidase method
T1 sequence (P23739 1-1013 limits assumed): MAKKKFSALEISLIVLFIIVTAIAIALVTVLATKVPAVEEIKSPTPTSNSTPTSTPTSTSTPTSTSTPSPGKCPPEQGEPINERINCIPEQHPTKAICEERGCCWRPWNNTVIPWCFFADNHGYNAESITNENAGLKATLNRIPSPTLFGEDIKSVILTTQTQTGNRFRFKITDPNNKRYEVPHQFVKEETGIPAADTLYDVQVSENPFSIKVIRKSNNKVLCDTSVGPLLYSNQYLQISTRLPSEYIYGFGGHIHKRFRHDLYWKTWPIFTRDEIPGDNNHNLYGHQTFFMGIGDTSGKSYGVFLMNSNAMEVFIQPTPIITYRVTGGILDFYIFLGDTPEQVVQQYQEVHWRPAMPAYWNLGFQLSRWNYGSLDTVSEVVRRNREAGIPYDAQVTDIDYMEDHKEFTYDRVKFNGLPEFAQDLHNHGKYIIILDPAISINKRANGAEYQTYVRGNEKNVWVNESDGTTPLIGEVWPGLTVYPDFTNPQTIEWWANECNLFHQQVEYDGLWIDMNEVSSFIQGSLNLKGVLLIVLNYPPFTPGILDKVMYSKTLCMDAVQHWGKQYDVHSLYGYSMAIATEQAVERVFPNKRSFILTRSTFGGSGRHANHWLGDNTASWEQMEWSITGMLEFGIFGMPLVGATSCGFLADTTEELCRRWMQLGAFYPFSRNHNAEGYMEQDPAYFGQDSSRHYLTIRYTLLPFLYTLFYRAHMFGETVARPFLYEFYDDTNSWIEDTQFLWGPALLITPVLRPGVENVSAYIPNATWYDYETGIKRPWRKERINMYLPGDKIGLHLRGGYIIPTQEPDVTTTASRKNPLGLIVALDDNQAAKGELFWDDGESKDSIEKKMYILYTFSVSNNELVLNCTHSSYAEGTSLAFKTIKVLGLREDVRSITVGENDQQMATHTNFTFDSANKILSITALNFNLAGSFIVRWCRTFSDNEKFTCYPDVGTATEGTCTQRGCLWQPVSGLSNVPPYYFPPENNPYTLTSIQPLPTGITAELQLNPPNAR
T1 sequence (P23739 1014-1841 limits assumed): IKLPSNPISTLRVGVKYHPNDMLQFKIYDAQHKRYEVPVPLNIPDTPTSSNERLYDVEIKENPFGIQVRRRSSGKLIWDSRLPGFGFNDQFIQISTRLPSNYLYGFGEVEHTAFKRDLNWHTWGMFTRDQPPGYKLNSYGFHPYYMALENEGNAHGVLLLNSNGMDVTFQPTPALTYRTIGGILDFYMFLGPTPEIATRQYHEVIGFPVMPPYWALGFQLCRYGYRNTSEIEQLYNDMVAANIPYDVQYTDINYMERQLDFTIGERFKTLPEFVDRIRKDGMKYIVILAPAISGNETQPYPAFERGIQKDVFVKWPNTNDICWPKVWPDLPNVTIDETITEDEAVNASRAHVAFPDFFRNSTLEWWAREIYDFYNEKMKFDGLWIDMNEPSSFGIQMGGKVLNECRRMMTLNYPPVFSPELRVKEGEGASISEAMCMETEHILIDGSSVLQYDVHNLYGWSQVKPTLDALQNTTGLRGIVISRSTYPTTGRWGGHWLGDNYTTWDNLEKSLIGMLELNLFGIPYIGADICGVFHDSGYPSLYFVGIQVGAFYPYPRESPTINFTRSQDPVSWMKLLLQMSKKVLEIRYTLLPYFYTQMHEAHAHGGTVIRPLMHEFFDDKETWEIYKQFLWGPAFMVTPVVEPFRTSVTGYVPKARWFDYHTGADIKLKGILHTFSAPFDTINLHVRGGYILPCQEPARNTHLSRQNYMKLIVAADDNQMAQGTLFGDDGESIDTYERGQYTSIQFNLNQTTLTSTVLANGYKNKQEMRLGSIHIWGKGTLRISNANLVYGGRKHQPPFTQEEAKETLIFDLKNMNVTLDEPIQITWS

[4] = target: T1, Sucrase-isomaltase, intestinal; assay: Competitive inhibition of rat intestinal sucrase using sucrose as substrate incubated for 30 mins by Lineweaver-Burk plot analysis
[5] = Competitive inhibition of rat intestinal maltase using maltose as substrate incubated for 30 mins by Lineweaver-Burk plot analysis
[6] = target: Sucrase-isomaltase, intestinal (Rattus norvegicus) (UniProt P23739); assay: Potency index, ratio of acarbose IC50 to compound IC50 for rat intestinal sucrase
Sequence of Sucrase-isomaltase, intestinal (Rattus norvegicus) (P23739 1-1013 limits assumed): as the sequence (P23739 1-1013 limits assumed) above
Sequence of Sucrase-isomaltase, intestinal (Rattus norvegicus) (P23739 1014-1841 limits assumed): as the sequence (P23739 1014-1841 limits assumed) above

## OC[C@@H]1[C@@H](O)[C@H](O)C[S+]1C[C@@H](O)[C@H](OCc1ccccc1Cl)[C@H](O)[C@@H](O)CO.[Cl-] (some centres undefined)
[1]
  IC50: > 500 µM
[2]
  IC50: 8.2 µM
[3]
  IC50: 700 nM
[4]
  Ki: 210 nM
[5]
  Ki: 0.45 µg/mL

## OC[C@@H]1[C@@H](O)[C@H](O)C[S+]1C[C@@H](O)[C@H](OCc1ccccc1C(F)(F)F)[C@H](O)[C@@H](O)CO.[Cl-] (some centres undefined)
[1]
  IC50: > 500 µM
[2]
  IC50: 2.5 µM
[3]
  IC50: 200 nM
[6]
  Ratio IC50: 10
[4]
  Ki: 216 nM
[5]
  Ki: 0.28 µg/mL

## OC[C@@H]1[C@@H](O)[C@H](O)C[S+]1C[C@@H](O)[C@H](O)[C@H](O)[C@@H](O)CO (some centres undefined)
[2]
  IC50: 2 µM
[3]
  IC50: 300 nM

## OC[C@@H]1[C@@H](O)[C@H](O)C[S+]1C[C@@H](O)[C@H](OCc1ccc(Cl)cc1)[C@H](O)[C@@H](O)CO (some centres undefined)
[2]
  IC50: 18.3 µM
[3]
  IC50: 5600 nM

## O=[N+]([O-])c1cccc(CO[C@H]([C@H](O)[C@@H](O)CO)[C@H](O)C[S+]2C[C@@H](O)[C@H](O)[C@H]2CO)c1 (some centres undefined)
[2]
  IC50: 6.7 µM
[3]
  IC50: 210 nM

## CCO[C@H]([C@H](O)[C@@H](O)CO)[C@H](O)C[S+]1C[C@@H](O)[C@H](O)[C@H]1CO (some centres undefined)
[2]
  IC50: 9.5 µM
[3]
  IC50: 270 nM

## OCC(CO)N[C@H]1C[C@](O)(CO)[C@@H](O)[C@H](O)[C@H]1O [VOGLIBOSE]
[3]
  IC50: 300 nM

## OC[C@@H]1[C@@H](O)[C@H](O)C[S+]1C[C@@H](O)[C@H](OCc1ccc(C(F)(F)F)cc1)[C@H](O)[C@@H](O)CO.[Cl-] (some centres undefined)
[2]
  IC50: 10 µM
[3]
  IC50: 4600 nM
[4]
  Ki: 786 nM
[5]
  Ki: 0.74 µg/mL

## OC[C@@H]1[C@@H](O)[C@H](O)C[S+]1C[C@@H](O)[C@H](OCc1ccccc1)[C@H](O)[C@@H](O)CO (some centres undefined)
[2]
  IC50: 5.3 µM
[3]
  IC50: 1900 nM

## O=[N+]([O-])c1ccccc1CO[C@H]([C@H](O)[C@@H](O)CO)[C@H](O)C[S+]1C[C@@H](O)[C@H](O)[C@H]1CO.[Cl-] (some centres undefined)
[1]
  IC50: > 500 µM
[2]
  IC50: 3.5 µM
[3]
  IC50: 320 nM
[4]
  Ki: 185 nM
[5]
  Ki: 0.6 µg/mL

## OC[C@@H]1[C@@H](O)[C@H](O)C[S+]1C[C@@H](O)[C@H](OCc1cccc(C(F)(F)F)c1)[C@H](O)[C@@H](O)CO.[Cl-] (some centres undefined)
[2]
  IC50: 9.6 µM
[3]
  IC50: 450 nM
[4]
  Ki: 354 nM
[5]
  Ki: 0.66 µg/mL

## OC[C@@H]1[C@@H](O)[C@H](O)C[S+]1C[C@@H](O)[C@H](OCc1cccc(Cl)c1)[C@H](O)[C@@H](O)CO (some centres undefined)
[2]
  IC50: 5.2 µM
[3]
  IC50: 510 nM

## O=[N+]([O-])c1ccc(CO[C@H]([C@H](O)[C@@H](O)CO)[C@H](O)C[S+]2C[C@@H](O)[C@H](O)[C@H]2CO)cc1 (some centres undefined)
[2]
  IC50: 32.4 µM
[3]
  IC50: 4200 nM
